These results are taken from ChEMBL document CHEMBL1132914, “4-[(8-Alkyl-8-azabicyclo[3.2.1]octyl-3-yl)-3-arylanilino]-N,N-diethylbenzamides: high affinity, selective ligands for the delta opioid receptor illustrate factors important to antagonist activity” (Bioorg Med Chem Lett, 2000).

The species named for assay [1] is Cavia porcellus. The assay is described as follows: Percent stimulation of [35S]GTP-gamma-S, binding by the compound (10 uM) in guinea pig caudate membranes for unblocked condition. Type of assay: functional. (GTPγS is a poorly hydrolysed GTP analogue; its binding reports G protein activation.)
Assay [2] is filed under the species Cavia porcellus. The assay is described as follows: Percent stimulation of [35S]GTP-gamma-S, binding by the compound in guinea pig caudate membranes for unblocked condition. The assay is classed as functional, organism-based.

In turn, `C/C=C\CN1C2CCC1CC(N(c1ccc(C(=O)N(CC)CC)cc1)c1cccc(OC)c1)C2` (stereo not given) yielded a Stimulation in the assay listed under Cavia porcellus [1] of 37%.

The compound `C=CCN1C[C@H](C)N([C@H](c2ccc(C(=O)N(CC)CC)cc2)c2cccc(OC)c2)C[C@H]1C` gave a Stimulation in the assay listed under Cavia porcellus [2] of 102%.

In the case of `C=CCN1[C@@H]2CC[C@H]1C[C@@H](N(c1ccc(C(=O)N(CC)CC)cc1)c1cccc(O)c1)C2`, in the assay filed under Cavia porcellus [1], the Stimulation is 79%.

Take `CCN(CC)C(=O)c1ccc(N(c2cccc(OC)c2)[C@H]2C[C@H]3CC[C@@H](C2)N3CC=C(C)C)cc1`: the Stimulation in the assay listed under Cavia porcellus [1] stood at 29%.

`C=CCN1[C@@H]2CC[C@H]1C[C@@H](N(c1ccc(C(=O)N(CC)CC)cc1)c1cccc(OC)c1)C2` returned a Stimulation in the assay listed under Cavia porcellus [1] of 46%.
